# ChEMBL document CHEMBL3734669, “Δ(5)-Cholenoyl-amino acids as selective and orally available antagonists of the Eph-ephrin system” (Eur J Med Chem, 2015)
# What was measured:
# [1] = Metabolic stability in mouse plasma assessed as compound remaining at 1 uM after 24 hrs by HPLC-ESI-MS/MS analysis; format: ADME, cell-free; conditions: read-out: Stability
# Ephrin type-A receptor 5 = Ephrin type-A receptor 5 (Homo sapiens, UniProt P54756); test: Displacement of biotinylated ephrin-A1-Fc from EphA5 (unknown origin) preincubated for 1 hr followed by biotinylated-ephrin-A1-Fc addition measured after 4 hrs by ELISA
# [2] = target: T1, Ephrin type-B receptor 1 (Homo sapiens) (UniProt P54762); test: (§1) Displacement of biotinylated ephrin-B1-Fc from EphB1 (unknown origin) preincubated for 1 hr followed by biotinylated-ephrin-B1-Fc addition measured after 4 hrs by ELISA
# T1 sequence (whole entry): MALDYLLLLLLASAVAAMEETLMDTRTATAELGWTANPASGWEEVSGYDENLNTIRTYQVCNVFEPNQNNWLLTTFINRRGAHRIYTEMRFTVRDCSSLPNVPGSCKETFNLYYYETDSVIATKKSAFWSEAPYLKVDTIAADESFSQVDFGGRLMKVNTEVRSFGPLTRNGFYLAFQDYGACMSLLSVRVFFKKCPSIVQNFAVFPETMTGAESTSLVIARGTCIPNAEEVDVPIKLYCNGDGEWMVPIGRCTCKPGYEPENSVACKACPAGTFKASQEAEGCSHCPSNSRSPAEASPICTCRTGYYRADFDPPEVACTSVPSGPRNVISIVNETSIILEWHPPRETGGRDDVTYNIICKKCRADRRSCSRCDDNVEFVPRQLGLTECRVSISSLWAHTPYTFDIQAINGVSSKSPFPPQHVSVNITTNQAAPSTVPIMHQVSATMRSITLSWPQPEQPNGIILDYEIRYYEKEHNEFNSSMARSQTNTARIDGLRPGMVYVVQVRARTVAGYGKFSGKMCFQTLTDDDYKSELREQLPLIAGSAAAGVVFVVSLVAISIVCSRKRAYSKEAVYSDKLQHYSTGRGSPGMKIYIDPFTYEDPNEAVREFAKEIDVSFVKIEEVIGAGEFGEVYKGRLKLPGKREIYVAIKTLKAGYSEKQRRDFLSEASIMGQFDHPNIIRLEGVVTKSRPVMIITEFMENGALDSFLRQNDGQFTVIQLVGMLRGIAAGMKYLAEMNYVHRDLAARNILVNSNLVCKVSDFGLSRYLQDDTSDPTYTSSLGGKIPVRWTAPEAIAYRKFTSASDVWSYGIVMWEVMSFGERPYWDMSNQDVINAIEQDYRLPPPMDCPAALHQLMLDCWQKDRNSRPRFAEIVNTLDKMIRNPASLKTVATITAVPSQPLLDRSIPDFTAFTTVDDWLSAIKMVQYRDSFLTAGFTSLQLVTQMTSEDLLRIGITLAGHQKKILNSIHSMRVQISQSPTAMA
# Ephrin type-B receptor 1 = target: T2, Ephrin type-B receptor 1 (Homo sapiens, UniProt P54762); test: as §1
# T2 sequence (P54762 whole entry): T1 sequence (whole entry)
# [3] = target: T3, Ephrin type-A receptor 8 (Homo sapiens) (UniProt P29322); test: (§2) Displacement of biotinylated ephrin-A1-Fc from EphA8 (unknown origin) preincubated for 1 hr followed by biotinylated-ephrin-A1-Fc addition measured after 4 hrs by ELISA
# T3 sequence (whole entry): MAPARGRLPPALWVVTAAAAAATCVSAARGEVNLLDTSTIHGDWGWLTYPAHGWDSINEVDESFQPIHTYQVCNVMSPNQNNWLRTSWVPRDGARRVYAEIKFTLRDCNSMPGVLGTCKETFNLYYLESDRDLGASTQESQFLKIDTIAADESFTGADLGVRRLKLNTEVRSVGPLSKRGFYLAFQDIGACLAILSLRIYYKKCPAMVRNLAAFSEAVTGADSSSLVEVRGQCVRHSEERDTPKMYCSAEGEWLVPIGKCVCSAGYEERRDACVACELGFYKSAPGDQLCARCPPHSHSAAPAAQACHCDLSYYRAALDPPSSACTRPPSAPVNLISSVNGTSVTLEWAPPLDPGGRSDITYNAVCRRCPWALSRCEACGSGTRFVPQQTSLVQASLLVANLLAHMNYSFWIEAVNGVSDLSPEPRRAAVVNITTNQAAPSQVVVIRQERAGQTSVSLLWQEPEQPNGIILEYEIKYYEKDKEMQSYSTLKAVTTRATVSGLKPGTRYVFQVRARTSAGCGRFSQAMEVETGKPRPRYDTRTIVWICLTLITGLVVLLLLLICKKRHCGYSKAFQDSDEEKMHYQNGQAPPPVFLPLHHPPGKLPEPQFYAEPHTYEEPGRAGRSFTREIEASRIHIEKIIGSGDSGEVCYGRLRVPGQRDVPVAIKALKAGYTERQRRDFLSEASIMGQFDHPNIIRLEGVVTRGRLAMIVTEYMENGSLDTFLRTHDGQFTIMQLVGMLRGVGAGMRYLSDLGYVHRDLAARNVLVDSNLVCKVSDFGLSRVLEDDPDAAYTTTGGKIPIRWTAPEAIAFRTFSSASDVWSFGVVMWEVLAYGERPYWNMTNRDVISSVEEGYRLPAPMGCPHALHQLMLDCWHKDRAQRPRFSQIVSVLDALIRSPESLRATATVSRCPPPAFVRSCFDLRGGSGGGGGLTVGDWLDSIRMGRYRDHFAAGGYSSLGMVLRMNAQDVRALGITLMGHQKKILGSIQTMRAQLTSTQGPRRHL
# Ephrin type-A receptor 8 = target: T4, Ephrin type-A receptor 8 (Homo sapiens, UniProt P29322); test: as §2
# T4 sequence (P29322 whole entry): T3 sequence (whole entry)
# Sequence of Ephrin type-A receptor 5 (P54756 whole entry): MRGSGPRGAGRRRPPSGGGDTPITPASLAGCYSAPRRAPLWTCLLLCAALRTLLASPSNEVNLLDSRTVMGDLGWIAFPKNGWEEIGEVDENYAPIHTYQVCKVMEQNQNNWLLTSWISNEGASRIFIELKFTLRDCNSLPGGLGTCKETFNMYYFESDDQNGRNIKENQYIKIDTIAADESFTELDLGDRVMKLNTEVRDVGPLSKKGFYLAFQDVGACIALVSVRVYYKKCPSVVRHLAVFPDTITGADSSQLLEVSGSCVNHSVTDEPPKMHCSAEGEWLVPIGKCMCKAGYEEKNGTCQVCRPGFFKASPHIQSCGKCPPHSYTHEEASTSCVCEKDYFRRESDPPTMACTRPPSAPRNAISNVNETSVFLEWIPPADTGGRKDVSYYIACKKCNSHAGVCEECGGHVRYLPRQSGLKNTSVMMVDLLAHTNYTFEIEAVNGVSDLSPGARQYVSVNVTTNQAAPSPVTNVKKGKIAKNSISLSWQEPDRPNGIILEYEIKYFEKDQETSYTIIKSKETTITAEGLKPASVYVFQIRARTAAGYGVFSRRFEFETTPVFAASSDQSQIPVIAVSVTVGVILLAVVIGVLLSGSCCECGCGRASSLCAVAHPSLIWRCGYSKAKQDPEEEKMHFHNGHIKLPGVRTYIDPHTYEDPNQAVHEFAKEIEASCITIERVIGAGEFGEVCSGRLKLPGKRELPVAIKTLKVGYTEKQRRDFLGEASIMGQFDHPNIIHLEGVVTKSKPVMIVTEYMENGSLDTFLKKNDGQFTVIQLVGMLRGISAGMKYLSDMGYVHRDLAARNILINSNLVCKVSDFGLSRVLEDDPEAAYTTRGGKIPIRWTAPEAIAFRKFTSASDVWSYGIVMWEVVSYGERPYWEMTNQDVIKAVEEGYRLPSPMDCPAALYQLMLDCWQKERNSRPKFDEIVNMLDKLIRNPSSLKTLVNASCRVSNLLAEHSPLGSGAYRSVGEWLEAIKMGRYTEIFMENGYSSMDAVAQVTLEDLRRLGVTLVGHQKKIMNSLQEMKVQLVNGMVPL
compound,measurement,setting,value
C[C@H](CCC(=O)N[C@@H](Cc1c[nH]c2ccccc12)C(=O)O)[C@H]1CC[C@H]2[C@@H]3CC=C4C[C@@H](O)CC[C@]4(C)[C@H]3CC[C@]12C,"remaining at 24 h, 1 µM",[1],95.8%
same,IC50,Ephrin type-A receptor 5,2600 nM
same,inhibition,Ephrin type-A receptor 5,Dose-dependent effect
same,inhibition,[2],Dose-dependent effect
same,IC50,Ephrin type-B receptor 1,2500 nM
same,inhibition,[3],Dose-dependent effect
same,IC50,Ephrin type-A receptor 8,3100 nM
